Assay results: US7462625B2, “Gonadotropin-releasing hormone receptor antagonists and methods relating thereto” (Neurocrine Biosciences, Inc., priority 2000, dated 2008)
Where a name gives a salt, the structure may show the parent alone.

The compounds below were run against T1, GnRH receptor (Homo sapiens, UniProt P30968) (assay: GnRH receptor membrane binding assay). Conditions: GnRH receptor membrane binding assay, [125I]-labeled GnRH peptide; read-out: Ki.
T1 construct: expressed in transfected cells
T1 sequence (P30968 1-328): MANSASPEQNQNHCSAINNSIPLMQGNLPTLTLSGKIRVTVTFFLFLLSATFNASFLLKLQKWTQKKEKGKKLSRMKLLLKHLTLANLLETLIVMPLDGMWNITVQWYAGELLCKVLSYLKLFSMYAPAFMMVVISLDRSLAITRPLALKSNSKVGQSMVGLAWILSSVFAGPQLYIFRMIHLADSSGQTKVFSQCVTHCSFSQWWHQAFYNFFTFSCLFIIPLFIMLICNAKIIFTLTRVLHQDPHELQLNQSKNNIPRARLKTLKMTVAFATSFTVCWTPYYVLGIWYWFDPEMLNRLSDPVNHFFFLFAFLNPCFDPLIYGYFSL
Description: Radio-Iodination of GnRH Peptide
The GnRH analog is labeled by the chloramine-T method. […] The reaction is stopped by the addition of 60 μg sodium metabisulfite and the free iodine is removed by passing the iodinated mixture through a C-8 Sep-Pak cartridge (Millipore Corp., Milford, Mass.). The peptide is eluted with a small volume of 80% acetonitrile/water. […] The purified radioactive peptide is stored in 0.1% BSA/20% acetonitrile/0.1% TFA at −80° C. and can be used for up to 4 weeks.
GnRH Receptor Membrane Binding Assay
Cells stably, or transiently, transfected with GnRH receptor expression vectors are harvested, resuspended in 5% sucrose and homogenized using a polytron homogenizer (2×15 sec). Nucleii are removed by centrifugation (3000×g for 5 min.), and the supernatant centrifuged (20,000×g for 30 min, 4° C.) to collect the membrane fraction. The final membrane preparation is resuspended in binding buffer (10 mM Hepes (pH 7.5), 150 mM NaCl, and 0.1% BSA) and stored at −70° C. Binding reactions are performed in a Millipore MultiScreen 96-well filtration plate assembly with polyethylenimine coated GF/C membranes. […] The reaction is terminated after 90 minutes by application of vacuum and washing (2×) with phosphate buffered saline. Bound radioactivity is measured using 96-well scintillation counting (Packard Topcount) or by removing the filters from the plate and direct gamma counting. Ki values are calculated from competition binding data using non-linear least squares regression using the Prism software package (GraphPad Software).

Ki, < 100 nM:
COc1cccc(-c2c(C)n(Cc3c(F)cccc3F)c(=O)n(C(C)CNCc3ccccn3)c2=O)c1 (stereo not drawn) [9-402]
COc1cccc(-c2c(C)n(Cc3c(F)cccc3F)c(=O)n(C[C@H](C)N(C)Cc3ccccn3)c2=O)c1F [9-409]
Cc1cccnc1CCN1CCCC1Cn1c(=O)cc(C)n(Cc2c(F)cccc2F)c1=O (stereo not drawn) [9-415]
COc1cccc(-c2c(C)n(Cc3c(F)cccc3F)c(=O)n(C[C@H](Cc3ccccc3)N(C)C)c2=O)c1F [9-443]
COc1cccc(-c2c(C)n(Cc3c(F)cccc3F)c(=O)n([C@H](C)CNCc3ccccc3F)c2=O)c1 [9-446]
COc1cccc(-c2c(C)n(Cc3c(F)cccc3F)c(=O)n([C@H](C)CNCc3cccc(F)c3)c2=O)c1 [9-448]
COc1cccc(-c2c(C)n(Cc3c(F)cccc3F)c(=O)n([C@H](C)CNCc3cc(C)cc(C)c3)c2=O)c1 [9-454]
COc1cccc(-c2c(C)n(Cc3c(F)cccc3F)c(=O)n(C[C@H](C)NCCc3ccccn3)c2=O)c1F [9-470]
COc1cccc(-c2c(C)n(Cc3c(F)cccc3F)c(=O)n([C@H](C)CNCc3cccc(C)c3)c2=O)c1 [9-473]
COc1cccc(CNC[C@@H](C)n2c(=O)c(-c3cccc(OC)c3)c(C)n(Cc3c(F)cccc3F)c2=O)c1 [9-477]
COc1cccc(-c2c(C)n(Cc3c(F)cccc3F)c(=O)n([C@H](C)CNCc3ccc4c(c3)CCO4)c2=O)c1F [9-495]
COc1cccc(-c2c(C)n(Cc3c(F)cccc3F)c(=O)n([C@H](C)CNCc3cccc4ccccc34)c2=O)c1F [9-502]
COc1cccc(-c2c(C)n(Cc3c(F)cccc3F)c(=O)n([C@H](C)CNCc3cc(Cl)ccc3O)c2=O)c1F [9-503]
COc1cccc(-c2c(C)n(Cc3c(F)cccc3F)c(=O)n([C@H](C)CNCc3c[nH]c4ccccc34)c2=O)c1F [9-509]
COc1cccc(-c2c(C)n(Cc3c(F)cccc3F)c(=O)n([C@H](C)CNCc3ccccn3)c2=O)c1F [9-512]
COc1cccc(-c2c(C)n(Cc3c(F)cccc3F)c(=O)n([C@H](C)CNCc3c(F)cccc3Cl)c2=O)c1 [9-514]
CN[C@@H](Cc1ccccc1)Cn1c(=O)c(-c2cccc(OC)c2F)c(C)n(Cc2c(F)cccc2F)c1=O [9-517]
COc1cccc(-c2c(C)n(Cc3c(F)cccc3F)c(=O)n(C[C@@H](C)NCc3ccsc3)c2=O)c1F [9-570]
COc1cccc(-c2c(C)n(Cc3c(F)cccc3F)c(=O)n(CC(C)NCC3CCCCC3)c2=O)c1F (stereo not drawn) [9-589]
COc1cccc(-c2c(C)n(Cc3c(F)cccc3F)c(=O)n(CC(C)NCc3cc(C)c(C)o3)c2=O)c1F (stereo not drawn) [9-595]
COc1cccc(-c2c(C)n(Cc3c(F)cccc3F)c(=O)n(C[C@H](C)NCc3[nH]cnc3C)c2=O)c1F [9-602]
CCCCN(CCCC)[C@H](C)Cn1c(=O)c(-c2cccc(OC)c2F)c(C)n(Cc2c(F)cccc2F)c1=O [9-612]
COc1cccc(-c2c(C)n(Cc3c(F)cccc3F)c(=O)n(C[C@@H](C)NC(C)C(C)C)c2=O)c1F (stereo partly drawn) [9-613]
COc1cccc(-c2c(C)n(Cc3c(F)cccc3F)c(=O)n(CC(C)NCc3cccn3C)c2=O)c1F (stereo not drawn) [9-618]
COc1cccc(-c2c(C)n(Cc3c(F)cccc3F)c(=O)n(CC(C)NCc3cccs3)c2=O)c1F (stereo not drawn) [9-621]
COc1cccc(-c2c(C)n(Cc3c(F)cccc3F)c(=O)n(CC(C)NCc3cc(Br)cs3)c2=O)c1F (stereo not drawn) [9-622]
COc1ccccc1CNC[C@@H](C)n1c(=O)c(-c2cccc(C)c2F)c(C)n(Cc2c(F)cccc2F)c1=O [9-634]
CCOc1ccccc1CNC[C@@H](C)n1c(=O)c(-c2cccc(C)c2F)c(C)n(Cc2c(F)cccc2F)c1=O [9-636]
COc1cccc(-c2c(C)n(Cc3c(F)cccc3F)c(=O)n(C[C@@H](C)NCc3ccco3)c2=O)c1F [9-652]
COc1cccc(-c2c(C)n(Cc3c(F)cccc3F)c(=O)n([C@H](C)CNCc3ccccc3C)c2=O)c1F [9-653]
COc1cccc(-c2c(C)n(Cc3c(F)cccc3F)c(=O)n(C[C@H](C)NCc3cccn3C)c2=O)c1F [9-664]
CCc1ccc(CN[C@@H](C)Cn2c(=O)c(-c3cccc(OC)c3F)c(C)n(Cc3c(F)cccc3F)c2=O)o1 [9-665]
COc1cccc(-c2c(C)n(Cc3c(F)cccc3F)c(=O)n(C[C@H](C)NCc3ccc(Cl)s3)c2=O)c1F [9-677]
CCC(C)C(C)CN[C@@H](C)Cn1c(=O)c(-c2cccc(OC)c2F)c(C)n(Cc2c(F)cccc2F)c1=O (stereo partly drawn) [9-678]
COc1cccc(-c2c(C)n(Cc3c(F)cccc3F)c(=O)n(C[C@H](C)NCc3ccc(O)cc3)c2=O)c1F [9-680]
CCCN(CCC)[C@@H](C)Cn1c(=O)c(-c2cccc(OC)c2F)c(C)n(Cc2c(F)cccc2F)c1=O [9-681]
CCC(CC(C)C)N[C@@H](C)Cn1c(=O)c(-c2cccc(OC)c2F)c(C)n(Cc2c(F)cccc2F)c1=O (stereo partly drawn) [9-688]
COc1cccc(-c2c(C)n(Cc3c(F)cccc3F)c(=O)n(C[C@H](CC(C)C)N(C)C)c2=O)c1F [9-704]
COc1cccc(-c2c(C)n(Cc3c(F)cccc3F)c(=O)n(C[C@@H](C(C)C)N(C)C)c2=O)c1F [9-711]
COc1cccc(-c2c(C)n(Cc3c(F)cccc3F)c(=O)n(C[C@@H](NC(C)C)C(C)C)c2=O)c1F [9-712]
CCN[C@H](Cn1c(=O)c(-c2cccc(OC)c2F)c(C)n(Cc2c(F)cccc2F)c1=O)C(C)C [9-714]
Cc1c(-c2ccc3c(c2)OCO3)c(=O)n(C[C@H](CO)N(CC2CC2)CC2CC2)c(=O)n1Cc1c(F)cccc1F [9-745]
COc1cccc(-c2c(C)n(Cc3c(F)cccc3F)c(=O)n(CC[C@@H](N)c3ccccc3)c2=O)c1 [9-774]
Cc1c(-c2ccccc2F)c(=O)n(C[C@H](N)c2ccccc2)c(=O)n1Cc1c(F)cccc1F [10-1, 6-Methyl-5-(2-fluorophenyl)-3-[2(R)-amino-2-phenylethyl]-1-(2,6-difluorobenzyl)uracil trifluoroacetic acid salt]
Cc1nc(-c2c(C)n(Cc3c(F)cccc3F)c(=O)n(C[C@H](N)c3ccccc3)c2=O)cs1 [12-1]
Cc1c(-c2csc(-c3ccccc3)n2)c(=O)n(C[C@H](N)c2ccccc2)c(=O)n1Cc1c(F)cccc1F [12-4]
Cc1c(-c2csc(Cc3ccccc3)n2)c(=O)n(C[C@H](N)c2ccccc2)c(=O)n1Cc1c(F)cccc1F [12-5]
COc1ccc(Nc2nc(-c3c(C)n(Cc4c(F)cccc4F)c(=O)n(C[C@H](N)c4ccccc4)c3=O)cs2)cc1 [12-10]
Cc1c(-c2csc(-c3ccc(F)cc3)n2)c(=O)n(C[C@H](N)c2ccccc2)c(=O)n1Cc1c(F)cccc1F [12-24]
COc1ccc(Nc2nc(-c3c(C)n(Cc4c(F)cccc4F)c(=O)n(C[C@H](N)c4ccccc4)c3=O)cs2)cc1OC [12-27]
Cc1ccc(Nc2nc(-c3c(C)n(Cc4c(F)cccc4F)c(=O)n(C[C@H](N)c4ccccc4)c3=O)cs2)cc1 [12-32]
CN[C@H](CC(C)C)Cn1c(=O)c(-c2cccc(OC)c2F)cn(Cc2c(F)cccc2F)c1=O [13-4]
CCc1c(-c2cccc(OC)c2F)c(=O)n(C[C@H](N)c2ccccc2)c(=O)n1Cc1c(F)cccc1F [15-1]
CCc1c(-c2cccc(OC)c2)c(=O)n(C[C@H](N)c2ccccc2)c(=O)n1Cc1c(F)cccc1F [15-2]
